# Experiments:
# PSMA = biological target: T1, PSMA (Homo sapiens, UniProt Q04609); test: Direct binding affinity on LNCaP cells (saturation); conditions: [99mTc]TcO complex of the listed compound, saturation 0.3-40 nM, 1 h 37° C., mean ± SEM, read-out: Kd [nM] of [99mTc]TcO-complexes
# T1 construct: host or cells: LNCaP human prostate carcinoma cells
# Protocol: (§1) Competition, saturation and internalization assays were assessed using the high PSMA expressing human prostate carcinoma cell line LNCaP (ATCC® CRL-1740). The cells were grown as monolayer at 37° C. in a humidified atmosphere comprising 5% CO2 and 95% air in RPMI medium including 10% FCS (Merck KGAA, Germany). After washing the confluent cells twice with phosphate buffered saline (PBS) and detaching them with trypsin/EDTA (0.05%/0.02%), the cells were suspended in medium and counted (Casy TT, Omni Life Science, Germany).
# For saturation monolayer of LNCaP cells were seeded, 5×10^4 cells/well in 48-well plates two days before the assay. On the day of saturation, after aspirating the medium, 160 μL of medium (for ^99mTc-labeled radioligand with D-mannitol (1 mg/mL)) were pipetted per well, for non-specific binding samples including 100 μM 2-PMPA. After preincubation for 5 min, 40 μL activity ([^68Ga]Ga-PSMA-11 or ^99mTc-labeled radioligand solution) were added (total volume/well: 200 μL). Eight concentrations ranged between 0.3 and 40 nM.
# After 1 hour of incubation at 37° C. both for competition and saturation samples, the supernatants were aspirated and the cells washed twice with cold PBS. The cell lawn was lysed with 500 μL NaOH/SDS (0.1 M/1%) by shaking for 3 to 5 minutes. After transferring the lysates into measuring tubes, the activity of the samples was measured in a gamma counter (2480 Automatic Gamma Counter Wizard 2, Perkin Elmer, USA).
# The half maximal inhibitory concentrations (IC50) and the dissociations constants (Kd) were calculated by fitting the data using a nonlinear curve-fitting program (GraphPad Prism 9). With the Kd value of [^68Ga]Ga-PSMA-11 on LNCaP and the known concentration of [^68Ga]Ga-PSMA-11 in the competition assay the inhibition constants (Ki) was also determined with the curve-fitting program.
# [1] = Determination of log D values (shake-flask, octanol/medium); assay type: physicochemical
# Protocol: Log D values were determined for different media by the shake-flask method (Andrés, A.; Rosés, M.; Ràfols, C.; Bosch, E.; Espinosa, S.; Segarra, V.; Huerta, J. M. Setup and validation of shake-flask procedures for the determination of partition coefficients (log D) from low drug amounts. Eur. J. Pharm. Sci. 2015, 76, 181-191.). In preparation, octanol was saturated with each of the used buffer solutions and vice versa. To 3 mL of octanol, together with 3 mL of buffer solution 200-300 μL of the ^99mTc-labeled radioligand (15-25 MBq, samples in triplicate) were added and shaken vigorously for 30 min. After centrifugation at 9,000 rpm for 15 min, samples were taken from both separated phases and measured by gamma-counter. Log D values were calculated as the ratio of radioactivity determined in octanol and aqueous phase.
# [2] = Product stability in DPBS at 25° C.; assay type: physicochemical; conditions: DPBS (+Ca2+, +Mg2+), mean ± SD; for Fraction of radioligand in DPBS at 25° C., 1 h / Fraction of radioligand in DPBS at 25° C., 2 h / Fraction of radioligand in DPBS at 25° C., 4 h / Fraction of radioligand in DPBS at 25° C., 20 h: normalized to fraction immediately after preparation
# Protocol: (§2) In brief, the freshly produced ^99mTc-labeled radioligand solution (10-20 MBq, 20-100 μL) was added to the respective medium (200-400 μL), vortexed quickly, and shook gently at the respective temperature mentioned below. At certain time points, samples were taken, diluted, and measured by radio-RP-HPLC. Hereby, investigation of plasma samples included protein precipitation with the 4-fold volume of an ice-cold mixture of methanol/water (4/1, v/v), intensive shaking (5 min) and centrifugation (14,000 rpm, 10 min), before inspection of the supernatant. In addition, the recovery of extracted activity was calculated after activity measurement of supernatant and residue by a gamma counter.
# [3] = Product stability in mouse plasma (in vitro); assay type: in vitro ADME; conditions: mean ± SD (n = 3-4), normalized to fraction immediately after preparation
# Protocol: as §2
# LNCaP cells = test: Determination of the internalization (surface binding and internalized activity); assay type: cell-based, human; conditions: 1 h; for Internalization, 4° C. (% AD/mg Protein) / Internalization, 37° C. (% AD/mg Protein): cytosolic activity; for Internalization, 4° C. (% AD/mg Protein) / Internalization, 37° C. (% AD/mg Protein) / Binding, 4° C. (% AD/mg Protein) / Binding, 37° C. (% AD/mg Protein): 25 nM radioligand, mean ± SEM; for Binding, 4° C. (% AD/mg Protein) / Binding, 37° C. (% AD/mg Protein): surface-bound activity
# Protocol: as §1
# For internalization LNCaP and PC3 cells were seeded, 1×10^5 cells/well in 24-well plates two days before the assay. On the day of internalization, after aspirating the medium, 100 μL of PBS and, for non-specific binding samples, 100 μL 2-PMPA (100 μM) were pipetted into the wells, followed by 400 μL medium including activity. The concentration of the ^99mTc-labeled radioligands was 25 nM. After 1 h of incubation at 37° C. and adjacent well plates at 4° C., the supernatant was removed and the cells washed with cold PBS. Surface-bound activity was stripped with 4° C. cold acid-wash buffer (0.2 M glycine, pH 2.8) for 5 min. The acid wash buffer was transferred from the plate wells to measuring tubes, as was the PBS buffer after washing once (binding on the surface). Cytosolic activity was determined after treatment with cell lysis buffer (0.1 M NaOH/1% SDS). Cell surface and cytosolic activity were measured separately in a gamma counter. Determination of protein content from cell lysate was performed using a spectrophotometer (NanoDrop, Thermo Fisher Scientific, USA) at an absorbance of 280 nm.
# [4] = Product stability at room temperature (without addition of any media); assay type: physicochemical; conditions: no media, radio-RP-HPLC
# Protocol: as §2
# [5] = test system: subcutaneous LNCaP tumor xenografts; test: SPECT/CT and PET/CT imaging in LNCaP tumor bearing mice; assay type: in vivo; conditions: LNCaP tumor bearing mice after 1 h and 4 h (FIG. 5)
# Protocol: A prostate cancer xenograft model was generated via subcutaneous injection of human LNCaP cells into the right shoulder of 8-12 week-old male nude mice (Rj:NMRI-Foxn1^nu/nu, Janvier Labs, Le Genest-Saint-Isle, France). Imaging studies were performed when tumors reached a diameter of >6 mm. General anesthesia was induced and maintained with inhalation of 10% (v/v) desflurane in […] oxygen/air. During anesthesia, animals were continuously warmed at 37° C.
# Small animal single-photon emission computed tomography (SPECT) was performed using the nanoSPECT/CT scanner (Mediso Medical Imaging Systems) equipped with an APT63 aperture consisting of four M3 multi-pinhole collimators. Each animal received 30 MBq of ^99mTc-labeled compounds delivered in 0.2 mL of Dulbecco's phosphate-buffered saline as a single intravenous injection through a tail vein catheter. Photon emission was recorded using frame times of 60 s (1 h scan: 40-70 min), 90 s (4 h scan, 3.5-4.5 h), and 320 s (20 h scan, 18.5-21.5 h), and binned simultaneously within the 20% energy window of the 140.5 keV photopeak. With each SPECT scan, a corresponding CT image was recorded and used for anatomical referencing and attenuation correction. SPECT images were reconstructed using the Tera-Tomo™ three-dimensional (3D) algorithm at normal range with a voxel size of 0.4 mm and applying corrections for scatter attenuation, and decay.
# Small animal positron emission tomography (PET) was performed using the nanoPET/CT scanner (Mediso Medical Imaging Systems). Each animal received 10 MBq of the radiolabeled reference compound [^68Ga]Ga-PSMA-11 delivered in Dulbecco's phosphate-buffered saline as a single intravenous injection through a tail vein catheter. Emission of the 511 keV annihilation photons was recorded continuously at a coincidence mode of 1:5 for 60 min following radiotracer injection. With each PET scan, a corresponding CT image was recorded and used for anatomical referencing and attenuation correction. Three-dimensional list mode data were binned using the 400-600 keV energy window. PET images of the 40-60 min time frame were reconstructed using the Tera-Tomo™ three-dimensional (3D) algorithm with a voxel size of 0.4 mm and applying corrections for random events, scatter, attenuation, and decay.
# Three-dimensional VOIs were created applying fixed threshold for delineation of tumor (30%), muscle (0%); and kidneys (39%). Standardized uptake values (SUV=[MBq detected activity/mL tissue]/[MBq injected activity/g body weight], mL/g) were determined and reported as max SUV (VOI-maximum). Time-activity curves were generated and further analyzed using Prism (GraphPad Software, San Diego CA, USA).
# T1 sequence (Q04609 whole entry): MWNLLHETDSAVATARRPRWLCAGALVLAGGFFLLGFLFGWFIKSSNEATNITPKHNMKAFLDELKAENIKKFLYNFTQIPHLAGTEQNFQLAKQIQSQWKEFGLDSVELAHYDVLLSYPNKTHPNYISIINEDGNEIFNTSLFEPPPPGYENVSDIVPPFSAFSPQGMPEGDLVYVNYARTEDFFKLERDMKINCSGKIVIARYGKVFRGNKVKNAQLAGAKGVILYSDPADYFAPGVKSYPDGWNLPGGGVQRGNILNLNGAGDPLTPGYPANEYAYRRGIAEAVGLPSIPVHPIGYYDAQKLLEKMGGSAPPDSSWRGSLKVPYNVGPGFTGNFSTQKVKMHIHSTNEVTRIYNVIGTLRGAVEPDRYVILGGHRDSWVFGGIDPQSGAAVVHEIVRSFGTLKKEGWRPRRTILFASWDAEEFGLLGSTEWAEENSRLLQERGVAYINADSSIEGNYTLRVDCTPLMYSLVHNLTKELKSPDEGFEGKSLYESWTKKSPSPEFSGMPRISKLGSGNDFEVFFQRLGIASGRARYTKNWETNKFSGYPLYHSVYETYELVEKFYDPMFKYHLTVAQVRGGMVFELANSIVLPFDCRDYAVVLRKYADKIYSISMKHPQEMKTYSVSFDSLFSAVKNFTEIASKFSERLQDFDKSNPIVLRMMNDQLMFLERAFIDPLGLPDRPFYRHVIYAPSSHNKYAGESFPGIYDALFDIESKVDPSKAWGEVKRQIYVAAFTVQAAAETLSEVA
Compound,Kd (PSMA) [nM],"Fraction of radioligand in DPBS at 25° C., 1 h [2] [%]","Fraction of radioligand in DPBS at 25° C., 2 h [2] [%]","Fraction of radioligand in DPBS at 25° C., 20 h [2] [%]","% Internalization, 37° C. (LNCaP cells) [%]","Internalization, 4° C. (% AD/mg Protein) (LNCaP cells)","Internalization, 37° C. (% AD/mg Protein) (LNCaP cells)","Binding, 4° C. (% AD/mg Protein) (LNCaP cells)","Binding, 37° C. (% AD/mg Protein) (LNCaP cells)",further results
CC(C)(S)CNCCN(CCCCC(=O)N[C@@H](Cc1ccccc1)C(=O)N[C@@H](Cc1ccccc1)C(=O)N[C@H](CCCCNC(=O)CCCCCCC(=O)NCCCC[C@H](NC(=O)N[C@@H](CCC(=O)O)C(=O)O)C(=O)O)C(=O)O)CC(C)(C)S [Compound 2],32.1 ± 24.3,–,–,–,–,–,–,–,–,–
CC(C)(S)CNCCN(CCCCC(=O)N[C@H](Cc1ccc(O)c(I)c1)C(=O)N[C@H](Cc1ccccc1)C(=O)N[C@H](CCCCNC(=O)CCCCCCC(=O)NCCCC[C@H](NC(=O)N[C@@H](CCC(=O)O)C(=O)O)C(=O)O)C(=O)O)CC(C)(C)S [Compound 4],4.7 ± 3.2,–,–,–,–,–,–,–,–,–
"O=C([O-])CN(CCN(CC(=O)[O-])Cc1cc(CCC(=O)NCCCCCC(=O)NCCCC[C@H](NC(=O)N[C@@H](CCC(=O)O)C(=O)O)C(=O)O)ccc1[O-])Cc1cc(CCC(=O)O)ccc1[O-].[68Ga+3].[OH3+] [^68Ga-PSMA11, reference compound]",–,–,–,–,40.3,0.1 ± 0.0,0.5 ± 0.2,0.3 ± 0.4,0.8 ± 0.2,–

# Continued, in another order:
Kd (PSMA) [nM],"Fraction of radioligand in DPBS at 25° C., 1 h [2] [%]","Fraction of radioligand in DPBS at 25° C., 2 h [2] [%]","Fraction of radioligand in DPBS at 25° C., 20 h [2] [%]",Compound,"% Internalization, 37° C. (LNCaP cells) [%]","Internalization, 4° C. (% AD/mg Protein) (LNCaP cells)","Internalization, 37° C. (% AD/mg Protein) (LNCaP cells)","Binding, 4° C. (% AD/mg Protein) (LNCaP cells)","Binding, 37° C. (% AD/mg Protein) (LNCaP cells)",further results
7.3,–,–,–,O=C(O)CC[C@H](NC(=O)N[C@@H](CCCCNC(=O)CCCCCCC(=O)NCCCC[C@@H](NC(=O)[C@H](CCC(=O)O)NC(=O)[C@H](CCC(=O)O)NC(=O)CCC(=O)NCCCN(CCS)CCNCCS)C(=O)O)C(=O)O)C(=O)O [Compound 6],–,–,–,–,–,–
–,101.5 ± 0.6,99.5 ± 0.8,93.5 ± 1.8,CC1(C)CN(CCCCC(=O)N[C@@H](Cc2ccccc2)C(=O)N[C@@H](Cc2ccccc2)C(=O)N[C@@H](CCCCNC(=O)CCCCCCC(=O)NCCCC[C@H](NC(=O)N[C@@H](CCC(=O)O)C(=O)O)C(=O)O)C(=O)O)CC[N]2CC(C)(C)[S][99Tc]2(=[O])[S]1 (stereo partly shown) [[^99mTc]TcO-1],–,–,–,–,–,"LogD (shake-flask, octanol/medium) Na-phosphate pH 7.4 ([1]; 4.4 mM Na2HPO4, 2.2 mM NaH2PO4, pH 7.4): −2.18 ± 0.002; LogD (shake-flask, octanol/medium) PBS 0.1M pH 7.4 ([1]; PBS 0.1M pH 7.4): −1.62 ± 0.01; LogD (shake-flask, octanol/medium) TRIS buffer 0.1M pH 7.4 ([1]; TRIS buffer 0.1M pH 7.4): −2.18 ± 0.01; Fraction of radioligand in DPBS at 25° C., 4 h [2]: 100.2 ± 1.0%; Fraction of radioligand after 6 h in mouse plasma at 37° C. [3]: 96.8 ± 0.3%"
–,88.4 ± 14.8,100 ± 1.8,98.0 ± 1.0,CC1(C)CN(CCCCC(=O)N[C@H](Cc2ccc(O)c(I)c2)C(=O)N[C@H](Cc2ccccc2)C(=O)N[C@H](CCCCNC(=O)CCCCCCC(=O)NCCCC[C@H](NC(=O)N[C@@H](CCC(=O)O)C(=O)O)C(=O)O)C(=O)O)CC[N]2CC(C)(C)[S][99Tc]2(=[O])[S]1 (stereo partly shown) [[^99mTc]TcO-4],39.2,0.2 ± 0.0,1.9 ± 0.9,2.2 ± 0.1,2.9 ± 0.5,"Fraction of radioligand in DPBS at 25° C., 4 h [2]: 105.5%"
–,75.9 ± 0.2,74.4 ± 0.1,18.7,O=C(O)CC[C@H](NC(=O)N[C@@H](CCCCNC(=O)CCCCCCC(=O)NCCCC[C@@H](NC(=O)[C@H](CCC(=O)O)NC(=O)[C@H](CCC(=O)O)NC(=O)CCC(=O)NCCCN1CC[S][99Tc]2(=[O])[S]CC[N]2CC1)C(=O)O)C(=O)O)C(=O)O (stereo partly shown) [[^99mTc]TcO-6],38.5,0.2 ± 0.0,2.9 ± 0.2,2.5 ± 0.4,4.7 ± 0.2,"Fraction of radioligand at indicated time point after preparation, 0 h ([4]; 0 h): 89%; Fraction of radioligand at indicated time point after preparation, 2 h ([4]; 2 h): 87%; Fraction of radioligand at indicated time point after preparation, 4 h ([4]; 4 h): 88%; Fraction of radioligand at indicated time point after preparation, 6 h ([4]; 6 h): 85%; Fraction of radioligand in DPBS at 25° C., after 6 h instead of 4 h ([2]; 6 h (footnote &), normalized): 72.3 ± 0.9%^&; tumor-to-liver ratios among the [99mTc]-labeled radioligands [5]: a marked or a significant increase; tumor-to-muscle ratios among the [99mTc]-labeled radioligands [5]: a marked or a significant increase"
